# From patent US20170239237A1, “PYRROLOQUINOLINE DERIVATIVES AS 5-HT6 ANTAGONISTS, PREPARATION METHOD AND USE THEREOF” (Uniwersytet Jagiellonski, priority 2013, published 2017)
# pKi: −log10 of the molar value. Where two headings read alike, the source gives them in different places. Marks after values point to notes of the source that are not given here.
# What was measured:
# Wistar rats [1] = assay: Forced swim test (FST) in Wistar rats; type: in vivo, rat; settings: IP, 60 minutes before the test; Wistar rats
# Method: (§1) For intraperitoneal (i.p.) administration: to the desired quantity of the solid compound in a glass beaker, required volume of sterile water for injection was added and swirled with glass bar until complete dissolution of the compound.
# (§2) Animals. Male Wistar rats weighing 220-250 g were used in the test. […] All animals were kept in an environmentally controlled rooms (ambient temperature 22±2° C; relative humidity 50-60%; 12:12 light:dark cycle, lights on at 8:00). They were allowed to acclimatize with the environment for one week before commencement of the experiments. Standard laboratory food (Ssniff M-Z) and filtered water were freely available. The experiments were conducted in the light phase between 09.00 and 14.00 hours. 1 h before the start of the experiment, rats were transferred to the experimental room for acclimation.
# Apparatus and procedure. […] On the first day of experiment, the animals were gently individually placed in Plexiglas cylinders (40 cm high, 18 cm in diameter) containing 15 cm of water maintained at 25° C. for 15 min. Upon removal from water, the rats were placed in a Plexiglas box for 30 min under a 60-W bulb to dry off. On the following day, the rats were placed again in the cylinder and the total duration of immobility was recorded throughout the 5-min test period. Fresh water was used for each animal.
# (§3) Experimental design. The compounds were administered IP, 60 minutes before the test.
# (§4) Drugs. The experimental compounds were dissolved in the distilled water. All compounds were administrated in the volume of 2 ml/kg.
# D3 receptors = D3 receptors (Homo sapiens, UniProt P35462); assay: biochemical; settings: read-out: % inhibition of control binding at 10^−6M, D3
# Method: (§5) Each compound was tested in duplicate at 10^-6 M concentration.
# Wistar rats [2] = assay: Conflict drinking test (Vogel test) in Wistar rats; type: in vivo, rat; settings: for Minimum effective dose, conflict drinking (Vogel test) in rats (potential anxiolytic properties): IP, 60 minutes before the test, Wistar rats
# Method: as §1, §2
# Apparatus and procedure. […] Experimental chambers were connected to PC software by control chassis and electric shocks' generator. On the first day of the experiment, the rats were adapted to the test chambers for 10 min. […] Afterwards, they were allowed a 30-min free-drinking session in their home cages. […] Recording data started immediately after the first lick and every 20 licks rats were punished with an electric shock (0.5 mA, lasting 1 s). The impulses were released via the spout of the drinking bottles. If a rat was drinking when an impulse was released, it received a shock. The number of licks and the number of shocks received during a 5-min experimental session was recorded automatically.
# as §3, §4
# 5-HT2C receptors = target: T1, 5-HT2C receptors (Homo sapiens, UniProt P28335); assay: biochemical; settings: read-out: % inhibition of control binding at 10^−6M, 5-HT2C
# T1 sequence (P28335 33-458): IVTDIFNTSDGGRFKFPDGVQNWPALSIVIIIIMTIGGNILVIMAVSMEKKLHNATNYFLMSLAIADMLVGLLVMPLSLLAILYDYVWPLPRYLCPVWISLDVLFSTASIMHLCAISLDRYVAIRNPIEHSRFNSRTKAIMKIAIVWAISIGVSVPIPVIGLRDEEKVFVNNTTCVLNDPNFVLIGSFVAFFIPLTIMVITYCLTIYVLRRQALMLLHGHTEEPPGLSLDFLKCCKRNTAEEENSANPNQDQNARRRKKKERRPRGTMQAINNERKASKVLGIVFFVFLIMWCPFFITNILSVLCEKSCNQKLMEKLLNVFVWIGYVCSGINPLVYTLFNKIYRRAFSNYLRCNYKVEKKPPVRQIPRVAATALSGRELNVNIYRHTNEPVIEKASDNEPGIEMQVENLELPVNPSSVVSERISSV
# Method: as §5
# 5-HT7 receptor = 5-HT7 receptor (Homo sapiens, UniProt P34969); assay: Radioligand binding, 5-HT7 ([3H]-5-CT displacement)
# M1 receptors = target: T2, M1 receptors (Homo sapiens, UniProt P11229); assay: biochemical; settings: read-out: % inhibition of control binding at 10^−6M, M1
# T2 sequence (P11229 1-460): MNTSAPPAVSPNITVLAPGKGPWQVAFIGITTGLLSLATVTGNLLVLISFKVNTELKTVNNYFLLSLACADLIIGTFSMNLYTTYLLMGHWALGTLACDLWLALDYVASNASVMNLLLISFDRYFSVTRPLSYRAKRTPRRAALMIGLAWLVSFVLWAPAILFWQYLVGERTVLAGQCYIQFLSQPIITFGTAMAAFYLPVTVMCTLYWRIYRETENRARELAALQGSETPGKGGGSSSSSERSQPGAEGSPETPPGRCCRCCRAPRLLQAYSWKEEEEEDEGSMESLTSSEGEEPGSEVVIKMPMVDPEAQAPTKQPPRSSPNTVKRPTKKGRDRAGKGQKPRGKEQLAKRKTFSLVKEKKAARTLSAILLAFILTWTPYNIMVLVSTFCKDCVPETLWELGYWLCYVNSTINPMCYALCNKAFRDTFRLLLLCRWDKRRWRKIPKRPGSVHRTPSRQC
# Method: as §5
# dopamine D2L receptor = dopamine D2L receptor (Homo sapiens, UniProt P14416); assay: Radioligand binding, D2 ([3H]-raclopride displacement)
# 5-HT1A receptor = target: T3, 5-HT1A receptor (Homo sapiens, UniProt P08908); assay: Radioligand binding, 5-HT1A ([3H]-8-OH-DPAT displacement)
# T3 sequence (P08908 1-422): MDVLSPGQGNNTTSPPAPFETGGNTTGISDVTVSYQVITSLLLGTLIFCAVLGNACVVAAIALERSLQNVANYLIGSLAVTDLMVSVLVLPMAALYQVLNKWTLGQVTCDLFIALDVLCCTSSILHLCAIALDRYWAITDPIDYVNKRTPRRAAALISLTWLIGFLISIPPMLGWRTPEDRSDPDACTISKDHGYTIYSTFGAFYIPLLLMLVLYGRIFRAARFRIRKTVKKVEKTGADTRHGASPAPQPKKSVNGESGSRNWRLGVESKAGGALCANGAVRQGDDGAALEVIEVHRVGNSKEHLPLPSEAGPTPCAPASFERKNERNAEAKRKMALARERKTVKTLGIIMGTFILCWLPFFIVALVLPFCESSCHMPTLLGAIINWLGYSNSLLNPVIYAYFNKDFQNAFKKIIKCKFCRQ
# 5-HT6 receptor [3] = target: T4, 5-HT6 receptor (Homo sapiens, UniProt P50406); assay: Radioligand binding, 5-HT6 ([3H]-LSD displacement); settings: for displacement % at 10^−6M, 5-HT6: values marked c in the 5-HT6 column
# 5-HT6 receptor [4] = target: T4, 5-HT6 receptor; assay: CHO-human-5HT6-Aequorin functional assay (ago-/antagonism); settings: test concentration not given; for % inhibition of control agonist response: agonist effect, CHO-human-5HT6-Aequorin cells; for % inhibition of control antagonist response: antagonist effect vs 10^-6 M α-methylserotonin induced luminescence
# [5] = read-out: Ki 5-HT1A, cloned human receptor in HEK293, three independent experiments, SEM ± 22%
# [6] = read-out: Ki 5-HT6, cloned human receptor in HEK293, three independent experiments, SEM ± 22%
# Chain of 5-HT7 receptor (P34969 1-432 limits assumed): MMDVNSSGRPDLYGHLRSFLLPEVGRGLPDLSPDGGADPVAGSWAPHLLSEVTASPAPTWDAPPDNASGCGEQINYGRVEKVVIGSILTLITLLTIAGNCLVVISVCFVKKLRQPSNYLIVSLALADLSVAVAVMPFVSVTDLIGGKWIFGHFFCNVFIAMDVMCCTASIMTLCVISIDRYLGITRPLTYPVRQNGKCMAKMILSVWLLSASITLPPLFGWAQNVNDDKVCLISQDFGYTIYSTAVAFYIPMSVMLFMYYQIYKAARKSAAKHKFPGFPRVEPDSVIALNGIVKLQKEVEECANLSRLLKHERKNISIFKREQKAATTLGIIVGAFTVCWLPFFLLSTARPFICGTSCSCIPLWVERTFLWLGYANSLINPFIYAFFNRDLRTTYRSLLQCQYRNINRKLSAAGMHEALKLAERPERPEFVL
# Chain of dopamine D2L receptor (P14416 whole entry): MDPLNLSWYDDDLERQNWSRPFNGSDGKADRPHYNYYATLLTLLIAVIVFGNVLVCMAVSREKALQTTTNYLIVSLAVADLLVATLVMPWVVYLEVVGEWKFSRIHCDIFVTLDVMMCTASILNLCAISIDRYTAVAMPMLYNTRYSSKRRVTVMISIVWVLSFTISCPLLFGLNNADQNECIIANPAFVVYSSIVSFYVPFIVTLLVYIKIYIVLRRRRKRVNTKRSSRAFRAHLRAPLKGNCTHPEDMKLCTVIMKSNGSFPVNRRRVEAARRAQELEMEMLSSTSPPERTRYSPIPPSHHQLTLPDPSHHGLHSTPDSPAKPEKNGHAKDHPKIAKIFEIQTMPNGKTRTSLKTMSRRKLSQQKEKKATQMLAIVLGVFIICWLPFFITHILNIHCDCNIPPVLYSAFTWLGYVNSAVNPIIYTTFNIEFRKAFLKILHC
# T4 sequence (P50406 whole entry): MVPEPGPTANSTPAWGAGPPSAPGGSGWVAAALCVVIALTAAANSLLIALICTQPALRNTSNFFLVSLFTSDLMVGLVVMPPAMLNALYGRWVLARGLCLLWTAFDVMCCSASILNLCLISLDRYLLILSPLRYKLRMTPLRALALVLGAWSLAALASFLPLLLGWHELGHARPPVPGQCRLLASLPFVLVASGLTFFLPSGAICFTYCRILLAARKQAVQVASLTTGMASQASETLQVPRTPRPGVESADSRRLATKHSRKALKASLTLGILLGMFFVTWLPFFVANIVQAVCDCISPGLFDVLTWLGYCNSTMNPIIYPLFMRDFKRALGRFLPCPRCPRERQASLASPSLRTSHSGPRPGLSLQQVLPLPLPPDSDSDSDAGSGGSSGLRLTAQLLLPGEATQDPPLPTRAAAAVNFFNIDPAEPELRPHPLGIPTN
# Chain of D3 receptors (P35462 whole entry): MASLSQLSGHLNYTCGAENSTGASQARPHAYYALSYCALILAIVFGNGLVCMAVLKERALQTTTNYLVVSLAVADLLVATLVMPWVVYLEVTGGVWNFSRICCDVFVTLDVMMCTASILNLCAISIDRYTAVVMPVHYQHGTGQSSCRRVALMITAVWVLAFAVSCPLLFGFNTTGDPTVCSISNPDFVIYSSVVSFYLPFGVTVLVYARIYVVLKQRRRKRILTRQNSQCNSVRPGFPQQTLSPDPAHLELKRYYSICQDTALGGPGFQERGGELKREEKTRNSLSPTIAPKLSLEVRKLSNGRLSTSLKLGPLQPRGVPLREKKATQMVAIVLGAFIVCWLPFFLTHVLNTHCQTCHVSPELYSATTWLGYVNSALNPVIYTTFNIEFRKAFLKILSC
SMILES,pKi (5-HT7 receptor),pKi (dopamine D2L receptor),pKi (5-HT1A receptor),pKi (5-HT6 receptor [3]),% inhibition of control agonist response (5-HT6 receptor [4]) [%],% inhibition of control antagonist response (5-HT6 receptor [4]) [%],also measured
"O=S(=O)(c1cccc(Cl)c1)n1ccc2c(N[C@H]3CCNC3)nc3ccccc3c21 [Compound 6, (S)-1-((3-chlorophenyl)sulfonyl)-N-(pyrrolidin-3-yl)-1H-pyrrolo[3,2-c]quinolin-4-amine]",5.30,5.99,5.63,–,–,–,"Minimum effective dose, forced swim test in rats (potential antidepressant properties) (Wistar rats [1]): 10 mg/kg; inhibition at 1 µM (D3 receptors): 69%; Minimum effective dose, conflict drinking (Vogel test) in rats (potential anxiolytic properties) (Wistar rats [2]): 3 mg/kg; inhibition at 1 µM (5-HT2C receptors): 21%; inhibition at 1 µM (M1 receptors): 9%"
"O=S(=O)(c1cccc(F)c1)n1ccc2c(N[C@@H]3CCNC3)nc3ccccc3c21 [Compound 10, (R)-1-((3-fluorophenyl)sulfonyl)-N-(pyrrolidin-3-yl)-1H-pyrrolo[3,2-c]quinolin-4-amine]",–,–,–,–,–,–,"displacement % at 10^−6M, 5-HT6 (5-HT6 receptor [3]): 100^c %; Minimum effective dose, conflict drinking (Vogel test) in rats (potential anxiolytic properties) (Wistar rats [2]): 10 mg/kg"
"O=S(=O)(c1cccc2ccccc12)n1ccc2c(NC3CCNC3)nc3ccccc3c21 (stereo not drawn) [Compound 21, 1-(naphthalen-1-ylsulfonyl)-N-(pyrrolidin-3-yl)-1H-pyrrolo[3,2-c]quinolin-4-amine]",5.85,5.65,5.27,7.72,10.6,60.0,–
"O=S(=O)(c1cccc2cccnc12)n1ccc2c(NC3CCNC3)nc3ccccc3c21 (stereo not drawn) [Compound 22, 1-(quinolin-8-ylsulfonyl)-N-(pyrrolidin-3-yl)-1H-pyrrolo[3,2-c]quinolin-4-amine]",4.73,5.19,4.82,8.40,16.4,70.2,–
"O=S(=O)(c1cccc(F)c1)n1ccc2c(N3CCNCC3)nc3ccccc3c21 [Compound 30, 1-((3-fluorophenyl)sulfonyl)-4-(piperazin-1-yl)-1H-pyrrolo[3,2-c]quinoline]",–,–,–,–,–,–,"Minimum effective dose, forced swim test in rats (potential antidepressant properties) (Wistar rats [1]): 10 mg/kg; Minimum effective dose, conflict drinking (Vogel test) in rats (potential anxiolytic properties) (Wistar rats [2]): 10 mg/kg; pKi (5-HT1A receptor; [5]): 6.36"
"N#Cc1cccc(S(=O)(=O)n2ccc3c(N4CCNCC4)nc4ccccc4c32)c1 [Compound 38, 1-((3-cyanophenyl)sulfonyl)-4-(piperazin-1-yl)-1H-pyrrolo[3,2-c]quinoline]",5.62,5.33,6.66,7.85,7.0,61.3,–
"CC(C)c1ccc(S(=O)(=O)n2ccc3c(N4CCNCC4)nc4ccccc4c32)cc1 [Compound 40, 1-((4-isopropylphenyl)sulfonyl)-4-(piperazin-1-yl)-1H-pyrrolo[3,2-c]quinoline]",5.49,5.59,6.83,–,−5.2,65.3,pKi (5-HT6 receptor [3]; [6]): 7.85
"Nc1ccc(S(=O)(=O)n2ccc3c(N4CCNCC4)nc4ccccc4c32)cc1 [Compound 42, 1-(4-(aminophenyl)sulfonyl)-4-(piperazin-1-yl)-1H-pyrrolo[3,2-c]quinoline]",–,–,–,–,–,–,"displacement % at 10^−6M, 5-HT6 (5-HT6 receptor [3]): 97^c %; Minimum effective dose, forced swim test in rats (potential antidepressant properties) (Wistar rats [1]): 0.1 mg/kg; Minimum effective dose, conflict drinking (Vogel test) in rats (potential anxiolytic properties) (Wistar rats [2]): 3 mg/kg"
"O=S(=O)(c1cccc2ccccc12)n1ccc2c(N3CCNCC3)nc3ccccc3c21 [Compound 43, 1-(naphthalen-1-ylsulfonyl)-4-(piperazin-1-yl)-1H-pyrrolo[3,2-c]quinoline]",5.70,5.40,6.15,–,–,–,melting point: 158 to 160 °C
"O=S(=O)(c1cccc2cccnc12)n1ccc2c(N3CCNCC3)nc3ccccc3c21 [Compound 45, 1-(quinolin-8-ylsulfonyl)-4-(piperazin-1-yl)-1H-pyrrolo[3,2-c]quinoline]",5.11,5.20,6.04,8.30,7.8,75.8,–
"Cc1c(S(=O)(=O)n2ccc3c(N4CCNCC4)nc4ccccc4c32)sc2ccc(Cl)cc12 [Compound 48, 1-((5-chloro-3-methylbenzo[b]thiophen-2-yl)sulfonyl)-4-(piperazin-1-yl)-1H-pyrrolo[3,2-c]quinoline]",5.05,6.72,5.83,7.80,2.7,37.7,–
"CN1CCN(c2nc3ccccc3c3c2ccn3S(=O)(=O)c2cccc3cccnc23)CC1 [Compound 59, 1-(quinolin-8-ylsulfonyl)-4-(4-methylpiperazin-1-yl)-1H-pyrrolo[3,2-c]quinolone]",–,–,–,–,16.9,61.0,"pKi (5-HT6 receptor [3]; [6]): > 9.00; pKi (5-HT7 receptor; read-out: Ki 5-HT7, cloned human receptor in HEK293, three independent experiments, SEM ± 22%): 5.11; pKi (dopamine D2L receptor; read-out: Ki D2, cloned human receptor in HEK293, three independent experiments, SEM ± 22%): 5.72; pKi (5-HT1A receptor; [5]): 6.68"
"O=S(=O)(c1cccc(Cl)c1)n1ccc2c(N3CCOCC3)nc3ccccc3c21 [Compound 78, 1-((3-chlorophenyl)sulfonyl)-4-(morpholine-4-yl)-1H-pyrrolo[3,2-c]quinoline]",4.70,4.43,3.34,6.80,21.3,23.8,–
"CN1C(=O)CN=C(c2ccccc2)c2cc(Cl)ccc21 [diazepam, reference compound]",–,–,–,–,–,–,"active dose in the conflict drinking test (Vogel test), increasing number of licks and shocks received (Wistar rats [2]; rats): 5 to 10 mg/kg"
